We go through three compounds from patent US9073858B2, “Methods of targeted drug development” (priority 2010, dated 2015).

Test [1] concerns HT-29 cells. Put plainly: HT-29 Cell Proliferation Assay (MTT). Type of test: cell-based. The settings on record: Homo sapiens, HT-29, 72 h, read-out: IC50 Value (μM) HT-29 Cells.
The target of test [2] is T1, EGFR (Homo sapiens, UniProt P00533).
T1 construct: endogenous in cells; host or cells: A431 cells (ATCC CRL-1555)
The experiment in a line: EGFR in-cell Western (ICW) screening protocol. Type of test: cell-based. The settings on record: initial screen. The arrangement: unit not given here. In outline:
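Serum-starved cells treated with compound 4 h at 37 °C, then stimulated with EGF (20 or 0 ng/ml solution added) in its continued presence. In-cell Western on fixed cells: phospho-EGFR (800 channel) normalised to total EGFR (700 channel), % inhibition calculated against EGF-stimulated and unstimulated no-compound wells.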

T1 sequence (P00533 25-1210): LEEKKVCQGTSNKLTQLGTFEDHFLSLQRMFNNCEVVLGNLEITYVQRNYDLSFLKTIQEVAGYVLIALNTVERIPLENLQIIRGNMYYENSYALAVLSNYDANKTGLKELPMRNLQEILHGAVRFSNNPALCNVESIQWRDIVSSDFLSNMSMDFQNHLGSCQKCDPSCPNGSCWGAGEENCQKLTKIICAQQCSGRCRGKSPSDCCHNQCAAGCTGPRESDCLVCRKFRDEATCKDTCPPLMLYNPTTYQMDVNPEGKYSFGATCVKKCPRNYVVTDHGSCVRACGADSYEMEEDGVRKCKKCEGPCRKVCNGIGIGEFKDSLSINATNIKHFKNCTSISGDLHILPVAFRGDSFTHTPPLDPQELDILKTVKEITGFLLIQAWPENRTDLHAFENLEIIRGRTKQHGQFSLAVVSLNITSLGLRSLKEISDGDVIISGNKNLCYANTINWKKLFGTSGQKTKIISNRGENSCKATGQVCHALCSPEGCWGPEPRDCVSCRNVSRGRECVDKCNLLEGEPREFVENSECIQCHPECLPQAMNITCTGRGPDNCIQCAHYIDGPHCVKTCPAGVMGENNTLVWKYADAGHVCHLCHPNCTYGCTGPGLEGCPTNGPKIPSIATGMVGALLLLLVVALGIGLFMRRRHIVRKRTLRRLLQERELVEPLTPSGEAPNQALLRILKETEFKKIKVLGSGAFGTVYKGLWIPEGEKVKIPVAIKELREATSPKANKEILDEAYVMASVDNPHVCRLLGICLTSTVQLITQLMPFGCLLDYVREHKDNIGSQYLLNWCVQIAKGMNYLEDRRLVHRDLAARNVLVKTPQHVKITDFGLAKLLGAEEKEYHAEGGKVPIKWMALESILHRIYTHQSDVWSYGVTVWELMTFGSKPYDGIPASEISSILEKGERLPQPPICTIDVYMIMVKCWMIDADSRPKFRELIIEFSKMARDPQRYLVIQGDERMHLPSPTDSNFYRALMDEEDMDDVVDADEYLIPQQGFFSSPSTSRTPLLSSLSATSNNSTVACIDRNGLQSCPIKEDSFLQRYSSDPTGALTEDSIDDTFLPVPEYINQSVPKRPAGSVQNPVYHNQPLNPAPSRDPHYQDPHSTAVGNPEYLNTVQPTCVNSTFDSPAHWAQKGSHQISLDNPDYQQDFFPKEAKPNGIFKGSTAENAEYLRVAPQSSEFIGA

In the case of `Cc1cc(Cl)cnc1NC(c1ccc(Cl)cc1Cl)c1ccc2cccnc2c1O` (stereo not drawn) [AD4-13130], the half-maximal inhibitory concentration (IC50) in test [1] amounted to 0.64 µM.

Turning to `Cc1c(Cl)cnc(NC(c2cccc(Cl)c2Cl)c2ccc3cccnc3c2O)c1F` (stereo not drawn) [AD4-13192], the IC50 in test [1] worked out at 2.2 µM. For the compound `Oc1c(C(Nc2ccccn2)c2ccc(C(F)(F)F)cc2)ccc2cccnc12` (stereo not drawn) [compound 10460], the “ICW Screen” value in test [2] is listed as 23.17.

Broadly, the IC50 is the midpoint of a concentration-inhibition curve.
